target: T1, recombinant IL4I1 (Homo sapiens, UniProt Q96RQ9); assay: IL4I1 Enzymatic Assay (Amplex Red/HRP coupled H2O2 detection); assay type: biochemical; conditions: 240 min; four-hour pre-incubation with compound; 1 nM IL4I1, 1 mM each Phe/Tyr/Trp; ten-point titration; fluorescence readout; read-out: Potency EC50 (nM) (240 min)
T1 construct: purchased R&D Systems 5684-AO-020
T1 sequence (Q96RQ9 22-567): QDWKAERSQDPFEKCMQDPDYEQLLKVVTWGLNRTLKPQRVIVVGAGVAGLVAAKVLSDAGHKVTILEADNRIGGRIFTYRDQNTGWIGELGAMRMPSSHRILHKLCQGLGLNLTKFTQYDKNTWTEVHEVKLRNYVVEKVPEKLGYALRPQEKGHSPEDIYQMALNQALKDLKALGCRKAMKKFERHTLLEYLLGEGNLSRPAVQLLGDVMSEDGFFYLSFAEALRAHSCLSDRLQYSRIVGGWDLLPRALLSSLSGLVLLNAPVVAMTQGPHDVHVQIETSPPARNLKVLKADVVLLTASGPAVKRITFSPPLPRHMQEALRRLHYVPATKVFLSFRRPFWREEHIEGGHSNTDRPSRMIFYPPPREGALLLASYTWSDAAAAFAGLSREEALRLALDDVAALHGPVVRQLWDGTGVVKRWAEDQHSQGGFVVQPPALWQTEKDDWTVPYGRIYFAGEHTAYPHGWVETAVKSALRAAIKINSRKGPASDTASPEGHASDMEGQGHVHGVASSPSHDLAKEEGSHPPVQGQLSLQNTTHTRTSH
Summary of the method: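 Recombinant IL4I1 at 1 nM final, pre-incubated 4 h with compound (0.1% DMSO) at ambient temperature in 50 mM Hepes pH 7.0, 0.005% Tween20; 1 mM each Phe/Tyr/Trp, 120 min, H2O2 read via Amplex Red/HRP fluorescence (544/590 nm). EC50 from ten-point four-parameter fit.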

Structure (SMILES)	EC50 [nM]
COC1(C(=O)NCc2ccc(Cn3c(=O)[nH]c4ccccc43)cc2)CC1 [Example 96, 1-methoxy-N-(4-((2-oxo-2,3-dihydro-1H-benzo[d]imidazol-1-yl)methyl)benzyl)cyclopropane-1-carboxamide]	21
O=c1[nH]c2ccccc2n1CCCOc1cccc2cccnc12 [Example 97, 1-(3-(quinolin-8-yloxy)propyl)-1,3-dihydro-2H-benzo[d]imidazol-2-one]	45
CS(=O)(=O)NC[C@H]1CC[C@H](Cn2c(=O)[nH]c3ccccc32)CC1 [Example 98, N-(((1r,4r)-4-((2-oxo-2,3-dihydro-1H-benzo[d]imidazol-1-yl)methyl)cyclohexyl)methyl)methanesulfonamide]	1570
CC(=O)N[C@H]1CC[C@H](Cn2c(=O)[nH]c3ccccc32)CC1 [Example 99, N-((1r,4r)-4-((2-oxo-2,3-dihydro-1H-benzo[d]imidazol-1-yl)methyl)cyclohexyl)acetamide]	2690
O=c1[nH]c2cc(Cl)ccc2n1Cc1ccc(Cc2nnco2)cc1 [Example 100]	784
O=C(NCC(F)(F)F)c1cccc(Cn2c(=O)[nH]c3ccccc32)c1 [Example 101, 3-((2-oxo-2,3-dihydro-1H-benzo[d]imidazol-1-yl)methyl)-N-(2,2,2-trifluoroethyl)benzamide]	90
O=C(c1cccc(Cn2c(=O)[nH]c3ccccc32)c1)N1CCC1 [Example 102, 1-(3-(azetidine-1-carbonyl)benzyl)-1,3-dihydro-2H-benzo[d]imidazol-2-one]	8
O=C(Cc1cccc(Cn2c(=O)[nH]c3ccccc32)c1)Nc1cccnc1 [Example 103, 2-(3-((2-oxo-2,3-dihydro-1H-benzo[d]imidazol-1-yl)methyl)phenyl)-N-(pyridin-3-yl)acetamide]	4
N#Cc1cccc(NC(=O)Cc2cccc(Cn3c(=O)[nH]c4ccccc43)c2)c1 [Example 104, N-(3-cyanophenyl)-2-(3-((2-oxo-2,3-dihydro-1H-benzo[d]imidazol-1-yl)methyl)phenyl)acetamide]	5
CN(C)C(=O)Cc1cccc(Cn2c(=O)[nH]c3ccccc32)c1 [Example 105, N,N-dimethyl-2-(3-((2-oxo-2,3-dihydro-1H-benzo[d]imidazol-1-yl)methyl)phenyl)acetamide]	10
O=C(Cc1ccc(Cn2c(=O)[nH]c3ccccc32)cc1)NC1CCC(F)C1 (stereo not shown) [Example 106, N-(3-fluorocyclopentyl)-2-(4-((2-oxo-2,3-dihydro-1H-benzo[d]imidazol-1-yl)methyl)phenyl)acetamide]	38
CNC(=O)Cc1ccc(Cn2c(=O)[nH]c3ccccc32)cc1 [Example 107, N-methyl-2-(4-((2-oxo-2,3-dihydro-1H-benzo[d]imidazol-1-yl)methyl)phenyl)acetamide]	5
O=C(Cc1ccc(Cn2c(=O)[nH]c3ccccc32)cc1)N1CCC(F)C1 (stereo not shown) [Example 108, 1-(4-(2-(3-fluoropyrrolidin-1-yl)-2-oxoethyl)benzyl)-1,3-dihydro-2H-benzo[d]imidazol-2-one]	8
CCc1ccc2c(c1)[nH]c(=O)n2Cc1ccccc1 [Example 109, 1-benzyl-5-ethyl-1,3-dihydro-2H-benzo[d]imidazol-2-one]	4940
O=c1[nH]c2cccc(F)c2n1Cc1ccccc1 [Example 110, 1-benzyl-7-fluoro-1,3-dihydro-2H-benzimidazol-2-one]	9160
O=c1[nH]c2sccc2n1Cc1ccccc1 [Example 112, 1-benzyl-1,3-dihydro-2H-thieno[2,3-d]imidazol-2-one]	1320
O=c1[nH]c2ccsc2n1Cc1ccccc1 [Example 113, 3-benzyl-1,3-dihydro-2H-thieno[2,3-d]imidazol-2-one]	2850
O=c1[nH]c2ccccc2n1CCCCc1cccc2cccnc12 [Example 114, 1-(4-(quinolin-8-yl)butyl)-1,3-dihydro-2H-benzo[d]imidazol-2-one]	107
O=c1[nH]c2ccccc2n1CC1CCN(c2ccccn2)CC1 [Example 115, 1-((1-(pyridin-2-yl)piperidin-4-yl)methyl)-1,3-dihydro-2H-benzo[d]imidazol-2-one]	1300

Source: US12454525B2, “IL4I1 inhibitors and methods of use” (Merck Sharp & Dohme LLC, priority 2020, dated 2025)
